Measured values published in patent US20170008888A1 (KYORIN PHARMACEUTICAL CO., LTD., priority 2014, published 2017).

Assays:
[1] = biological target: T1, AurA (Homo sapiens, UniProt O14965); assay: Probe-based (AX9989) kinase profiling in Jurkat lysate: AurA; type: binding; details: read-out: AurA Inhibition % at indicated screening concentration; for inhibition at 1 µM: screening concentration 1 μM
T1 construct: screened for activity against several kinases in Jurkat cells; endogenous in cells; host or cells: Jurkat cell lysate
T1 sequence (O14965 1-403): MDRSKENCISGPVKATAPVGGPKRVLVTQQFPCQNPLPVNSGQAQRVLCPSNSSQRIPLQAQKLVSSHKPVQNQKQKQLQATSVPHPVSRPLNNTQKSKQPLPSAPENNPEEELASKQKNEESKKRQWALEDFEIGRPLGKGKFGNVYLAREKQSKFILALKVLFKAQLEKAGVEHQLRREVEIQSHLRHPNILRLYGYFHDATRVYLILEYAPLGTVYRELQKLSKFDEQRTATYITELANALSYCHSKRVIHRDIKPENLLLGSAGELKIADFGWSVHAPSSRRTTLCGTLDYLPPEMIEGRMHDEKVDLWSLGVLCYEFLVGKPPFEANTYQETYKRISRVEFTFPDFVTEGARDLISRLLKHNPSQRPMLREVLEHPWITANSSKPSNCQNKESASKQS
In short: (§1)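 Compounds were pre-incubated for 15 min at room temperature with gel-filtered Jurkat cell lysate supplemented with 20 mM MnCl2, after which the acyl phosphate ATP probe AX9989 was added at 5 μM final. Labeled active-site peptides were enriched after tryptic digestion and measured by LC/MS, with percent inhibition taken relative to samples without compound.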

[2] = biological target: T2, TAO2 (Homo sapiens, UniProt Q9UL54); assay: Probe-based (AX9989) kinase profiling in Jurkat lysate: TAO2; type: binding; details: read-out: TAO2 Inhibition % at indicated screening concentration; for inhibition at 1 µM: screening concentration 1 μM
T2 construct: screened for activity against several kinases in Jurkat cells; endogenous in cells; host or cells: Jurkat cell lysate
T2 sequence (Q9UL54 1-1235): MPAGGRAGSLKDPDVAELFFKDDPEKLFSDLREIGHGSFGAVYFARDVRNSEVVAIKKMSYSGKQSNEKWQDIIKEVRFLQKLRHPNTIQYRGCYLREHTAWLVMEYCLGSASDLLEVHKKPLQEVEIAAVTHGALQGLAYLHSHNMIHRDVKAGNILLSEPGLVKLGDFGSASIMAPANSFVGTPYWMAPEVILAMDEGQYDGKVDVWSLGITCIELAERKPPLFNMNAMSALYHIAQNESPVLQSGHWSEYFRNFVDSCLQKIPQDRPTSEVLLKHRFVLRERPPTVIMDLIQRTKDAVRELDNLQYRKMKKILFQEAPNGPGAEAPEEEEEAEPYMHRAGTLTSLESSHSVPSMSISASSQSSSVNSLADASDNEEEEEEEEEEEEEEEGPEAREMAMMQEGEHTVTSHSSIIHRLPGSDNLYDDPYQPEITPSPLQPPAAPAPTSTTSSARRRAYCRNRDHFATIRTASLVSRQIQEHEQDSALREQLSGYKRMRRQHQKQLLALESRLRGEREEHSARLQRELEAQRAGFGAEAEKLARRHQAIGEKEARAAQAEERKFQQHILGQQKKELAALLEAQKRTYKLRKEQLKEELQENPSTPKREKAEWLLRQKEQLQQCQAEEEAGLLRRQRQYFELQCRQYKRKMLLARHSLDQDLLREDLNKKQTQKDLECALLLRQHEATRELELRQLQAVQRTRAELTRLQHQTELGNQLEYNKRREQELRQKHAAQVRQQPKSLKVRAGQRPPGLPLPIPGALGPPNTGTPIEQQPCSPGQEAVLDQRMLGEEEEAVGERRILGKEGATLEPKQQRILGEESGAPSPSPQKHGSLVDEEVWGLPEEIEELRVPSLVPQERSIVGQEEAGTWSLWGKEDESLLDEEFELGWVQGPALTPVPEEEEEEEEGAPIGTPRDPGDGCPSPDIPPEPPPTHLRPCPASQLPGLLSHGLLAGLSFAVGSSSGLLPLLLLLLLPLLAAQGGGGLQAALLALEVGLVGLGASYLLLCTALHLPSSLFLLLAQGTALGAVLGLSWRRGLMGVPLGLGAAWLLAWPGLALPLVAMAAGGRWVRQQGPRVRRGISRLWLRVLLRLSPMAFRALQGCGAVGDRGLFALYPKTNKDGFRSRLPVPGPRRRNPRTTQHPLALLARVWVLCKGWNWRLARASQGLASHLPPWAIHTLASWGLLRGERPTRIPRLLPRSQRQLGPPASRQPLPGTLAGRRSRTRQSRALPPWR
In short: as §1

[3] = test system: AMPKa1 or AMPKa2; assay: Probe-based (AX9989) kinase profiling in Jurkat lysate: AMPKa1 or AMPKa2; type: binding
In short: as §1

[4] = biological target: T3, JAK1 (Homo sapiens, UniProt P23458); assay: Probe-based (AX9989) kinase profiling in Jurkat lysate: JAK1; type: binding; details: read-out: JAK1 Inhibition % at indicated screening concentration; for inhibition at 1 µM: screening concentration 1 μM
T3 construct: screened for activity against several kinases in Jurkat cells; endogenous in cells; host or cells: Jurkat cell lysate
In short: as §1

[5] = biological target: T4, ERK5 (Homo sapiens, UniProt Q13164); assay: Probe-based (AX9989 acyl phosphate ATP probe) kinase profiling in Jurkat lysate: ERK5; type: binding; details: for IC50: calculated from percent inhibition and screening concentration, Jurkat lysate, AX9989 probe; for inhibition at 1 µM: screening concentration 1 μM
T4 construct: screened for activity against several kinases in Jurkat cells; endogenous in cells; host or cells: Jurkat cell lysate
In short: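 Gel-filtered Jurkat lysate (5 mg/ml, 20 mM MnCl2) preincubated 15 min at room temperature with compound, then labelled with 5 μM AX9989 acyl phosphate ATP probe. Probe-labelled ERK5 active-site peptides quantified by LC/MS after trypsin digestion and streptavidin capture; IC50 calculated from percent inhibition at the screening concentration.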

[6] = test system: human PBMCs; assay: Human PBMC TNF-α response to endotoxin (ELISA); type: cell-based; details: 0.1 μg/ml LPS 16 h, read-out: EC50 for the inhibition of the human PBMC TNF-α response to endotoxin, ave. ± S.D.
In short: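 PBMCs at 2e6 cells/ml in RPMI 1640 with 10% charcoal-dextran-treated FBS were pre-treated 1 h at 37 °C with compound (4-point 1:5 dilution from 10 μM). Stimulation with 0.1 μg/ml E. coli 0111:B4 LPS for 16 h; TNF-α measured by ELISA (A450) in 25-fold diluted supernatant.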

[7] = biological target: T5, ACK (Homo sapiens, UniProt Q07912); assay: Probe-based (AX9989) kinase profiling in Jurkat lysate: ACK; type: binding; details: read-out: ACK Inhibition % at indicated screening concentration; for inhibition at 1 µM: screening concentration 1 μM
T5 construct: screened for activity against several kinases in Jurkat cells; endogenous in cells; host or cells: Jurkat cell lysate
In short: as §1

[8] = test system: ABL or ARG; assay: Probe-based (AX9989) kinase profiling in Jurkat lysate: ABL or ARG; type: binding
In short: as §1

[9] = test system: AurB or AurC; assay: Probe-based (AX9989) kinase profiling in Jurkat lysate: AurB or AurC; type: binding
In short: as §1

[10] = read-out: ERK5 Inhibition % at indicated screening concentration

T4 sequence (Q13164 whole entry): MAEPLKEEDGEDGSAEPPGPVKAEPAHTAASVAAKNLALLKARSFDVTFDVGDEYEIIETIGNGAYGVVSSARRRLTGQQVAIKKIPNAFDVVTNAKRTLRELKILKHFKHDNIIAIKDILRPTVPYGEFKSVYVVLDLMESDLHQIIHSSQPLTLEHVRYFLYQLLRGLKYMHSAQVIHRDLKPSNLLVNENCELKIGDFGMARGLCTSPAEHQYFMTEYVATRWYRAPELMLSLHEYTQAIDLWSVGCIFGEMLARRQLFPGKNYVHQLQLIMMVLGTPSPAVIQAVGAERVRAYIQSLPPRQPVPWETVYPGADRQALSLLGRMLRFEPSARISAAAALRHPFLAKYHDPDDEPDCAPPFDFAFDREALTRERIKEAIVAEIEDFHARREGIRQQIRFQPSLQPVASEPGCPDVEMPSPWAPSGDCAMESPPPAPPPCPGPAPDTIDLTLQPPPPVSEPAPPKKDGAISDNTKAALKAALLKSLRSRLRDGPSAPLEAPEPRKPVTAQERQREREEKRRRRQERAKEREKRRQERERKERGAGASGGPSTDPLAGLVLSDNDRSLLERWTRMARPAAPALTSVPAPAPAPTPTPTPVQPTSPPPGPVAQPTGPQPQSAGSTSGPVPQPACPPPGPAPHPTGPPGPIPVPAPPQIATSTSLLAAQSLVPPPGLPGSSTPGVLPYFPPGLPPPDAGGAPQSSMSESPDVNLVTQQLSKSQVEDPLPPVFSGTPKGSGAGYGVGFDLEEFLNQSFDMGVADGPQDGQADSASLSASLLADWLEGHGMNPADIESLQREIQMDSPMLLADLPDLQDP
T3 sequence (P23458 whole entry): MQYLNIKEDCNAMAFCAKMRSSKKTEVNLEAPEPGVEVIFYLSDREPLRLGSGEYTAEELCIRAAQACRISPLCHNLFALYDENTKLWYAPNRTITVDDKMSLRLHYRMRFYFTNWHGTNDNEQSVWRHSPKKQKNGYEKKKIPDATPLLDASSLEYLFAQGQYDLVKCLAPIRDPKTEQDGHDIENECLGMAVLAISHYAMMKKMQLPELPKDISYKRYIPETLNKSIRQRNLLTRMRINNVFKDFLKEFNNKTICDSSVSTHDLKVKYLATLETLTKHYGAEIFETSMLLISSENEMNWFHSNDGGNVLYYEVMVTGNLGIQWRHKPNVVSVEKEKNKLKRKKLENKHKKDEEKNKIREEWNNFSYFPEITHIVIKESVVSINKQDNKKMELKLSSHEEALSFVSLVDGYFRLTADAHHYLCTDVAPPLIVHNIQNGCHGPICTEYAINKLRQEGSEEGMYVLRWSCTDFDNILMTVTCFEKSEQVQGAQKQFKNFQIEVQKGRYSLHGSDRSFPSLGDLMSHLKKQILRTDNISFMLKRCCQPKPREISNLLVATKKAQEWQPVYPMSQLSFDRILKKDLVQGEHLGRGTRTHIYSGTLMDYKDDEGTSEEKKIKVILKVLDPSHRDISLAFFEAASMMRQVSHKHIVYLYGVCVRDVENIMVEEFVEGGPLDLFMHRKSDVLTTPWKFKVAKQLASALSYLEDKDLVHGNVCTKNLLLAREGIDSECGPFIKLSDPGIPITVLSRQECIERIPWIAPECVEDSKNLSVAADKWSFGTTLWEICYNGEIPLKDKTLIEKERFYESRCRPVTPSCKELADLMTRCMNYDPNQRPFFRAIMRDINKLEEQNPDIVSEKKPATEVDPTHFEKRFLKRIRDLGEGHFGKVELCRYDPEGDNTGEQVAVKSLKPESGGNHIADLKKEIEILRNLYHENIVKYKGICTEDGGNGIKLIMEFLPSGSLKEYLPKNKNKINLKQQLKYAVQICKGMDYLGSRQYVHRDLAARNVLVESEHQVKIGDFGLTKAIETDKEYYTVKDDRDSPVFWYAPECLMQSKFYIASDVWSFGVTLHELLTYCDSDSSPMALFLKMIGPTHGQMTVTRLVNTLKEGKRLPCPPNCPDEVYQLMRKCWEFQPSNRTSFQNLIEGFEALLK
T5 sequence (Q07912 whole entry): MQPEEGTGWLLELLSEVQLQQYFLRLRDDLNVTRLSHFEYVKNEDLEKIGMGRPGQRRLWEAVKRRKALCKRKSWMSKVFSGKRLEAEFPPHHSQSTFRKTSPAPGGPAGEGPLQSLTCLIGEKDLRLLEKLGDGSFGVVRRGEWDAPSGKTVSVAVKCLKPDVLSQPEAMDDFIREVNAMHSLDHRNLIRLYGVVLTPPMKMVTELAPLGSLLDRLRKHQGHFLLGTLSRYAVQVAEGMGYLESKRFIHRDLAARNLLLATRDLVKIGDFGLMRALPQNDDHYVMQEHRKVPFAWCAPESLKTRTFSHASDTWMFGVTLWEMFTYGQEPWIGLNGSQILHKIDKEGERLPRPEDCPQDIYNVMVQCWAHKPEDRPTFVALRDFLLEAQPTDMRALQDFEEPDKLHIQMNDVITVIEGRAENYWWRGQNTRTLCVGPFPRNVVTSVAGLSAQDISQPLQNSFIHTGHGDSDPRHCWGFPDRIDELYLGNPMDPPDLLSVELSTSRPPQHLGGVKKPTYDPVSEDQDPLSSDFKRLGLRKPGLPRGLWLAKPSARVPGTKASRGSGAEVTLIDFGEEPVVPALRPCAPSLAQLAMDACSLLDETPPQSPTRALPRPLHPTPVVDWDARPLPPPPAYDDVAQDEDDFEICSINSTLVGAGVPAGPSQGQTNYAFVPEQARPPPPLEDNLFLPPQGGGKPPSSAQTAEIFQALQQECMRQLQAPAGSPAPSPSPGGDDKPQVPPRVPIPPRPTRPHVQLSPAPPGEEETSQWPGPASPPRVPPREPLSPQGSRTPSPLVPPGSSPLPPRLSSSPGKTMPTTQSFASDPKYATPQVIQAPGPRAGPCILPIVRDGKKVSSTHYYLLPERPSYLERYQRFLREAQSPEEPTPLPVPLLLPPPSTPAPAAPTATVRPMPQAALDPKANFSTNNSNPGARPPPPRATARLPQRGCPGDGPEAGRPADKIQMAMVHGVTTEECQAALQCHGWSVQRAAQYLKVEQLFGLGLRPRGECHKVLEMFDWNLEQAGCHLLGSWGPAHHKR

| SMILES | inhibition at 1 µM [1] | inhibition at 1 µM [2] | AMPKa1 or AMPKa2 Inhibition % at indicated screening concentration ([3]; screening concentration 1 μM) | inhibition at 1 µM [4] | IC50 [5] | inhibition at 1 µM [5, 10] | EC50 [6] | inhibition at 1 µM [7] | ABL or ARG Inhibition % at indicated screening concentration ([8]; screening concentration 1 μM) | AurB or AurC Inhibition % at indicated screening concentration ([9]; screening concentration 1 μM) | inhibition at 10 µM ([1]; screening concentration 10 μM) | inhibition at 10 µM ([2]; screening concentration 10 μM) | AMPKa1 or AMPKa2 Inhibition % at indicated screening concentration ([3]; screening concentration 10 μM) | inhibition at 10 µM ([4]; screening concentration 10 μM) | inhibition at 10 µM ([5]; screening concentration 10 μM, read-out: ERK5 Inhibition % at indicated screening concentration) | inhibition at 10 µM ([7]; screening concentration 10 μM) | ABL or ARG Inhibition % at indicated screening concentration ([8]; screening concentration 10 μM) | AurB or AurC Inhibition % at indicated screening concentration ([9]; screening concentration 10 μM) |
| --- | --- | --- | --- | --- | --- | --- | --- | --- | --- | --- | --- | --- | --- | --- | --- | --- | --- | --- |
| CCOc1cc(C(=O)N2CCC(N3CCCC3)CC2)ccc1Nc1cc2c(cn1)N(C)C(=O)c1scnc1N2C [Compound T6] | ≤ 35% | ≤ 35% | E (E is ≦35%) | ≤ 35% | ≤ 0.05 µM | > 90% | 0.4 µM | ≤ 35% | E (E is ≦35%) | E (E is ≦35%) | – | – | – | – | – | – | – | – |
| CCOc1cc(C(=O)N2CCCNCC2)ccc1Nc1cc2c(cn1)N(C)C(=O)c1scnc1N2C [Compound T7] | ≤ 35% | ≤ 35% | E (E is ≦35%) | ≤ 35% | 0.05 to 0.1 µM | > 90% | 0.34 µM | ≤ 35% | E (E is ≦35%) | E (E is ≦35%) | – | – | – | – | – | – | – | – |
| CCOc1cc(C(=O)N[C@H]2CC[C@H](C#N)CC2)ccc1Nc1cc2c(cn1)N(C)C(=O)c1ccccc1N2C [Compound T59] | ≤ 35% | ≤ 35% | E (E is ≦35%) | ≤ 35% | 0.101 to 0.5 µM | 50 to 75% | 0.72 µM | ≤ 35% | E (E is ≦35%) | E (E is ≦35%) | – | – | – | – | – | – | – | – |
| CCOc1cc(C(=O)N2CCC(N3CCCC3)CC2)ccc1Nc1cc2c(cn1)N(C)C(=O)N1C=CC=CC1=N2 [Compound T66] | – | – | – | – | > 0.5 µM | – | > 10 µM | – | – | – | ≤ 35% | ≤ 35% | E (E is ≦35%) | ≤ 35% | 35 to 50% | 50 to 75% | E (E is ≦35%) | E (E is ≦35%) |
| CCOc1cc(C(=O)N2CCN(C(C)=O)CC2)ccc1Nc1cc2c(cn1)N(C)C(=O)c1ccccc1N2C1CC1 [Compound T67] | ≤ 35% | ≤ 35% | E (E is ≦35%) | ≤ 35% | ≤ 0.05 µM | > 90% | 4.9 µM | 35 to 50% | E (E is ≦35%) | E (E is ≦35%) | – | – | – | – | – | – | – | – |
